Laboratory results: ChEMBL document CHEMBL3045316, “Synthesis and analgesic activity of new heterocyclic compounds derived from monoterpenoids” (Med Chem Res, 2013)

Columns and labels:
[1] = test system: Mus musculus; assay: Analgesic activity in albino Mus musculus (mouse) assessed as inhibition of acetic acid-induced abdominal writhings at 10 mg/kg, po administered 1 hr before acetic acid injection measured for 5 to 8 min; format: functional; conditions: Abdomen
[2] = test system: Mus musculus; assay: Analgesic activity in albino Mus musculus (mouse) assessed as protection against thermal stimulus-induced paw licking and jumping behaviour at 10 mg/kg, po measured after 1 hr by hot plate assay; format: functional
[3] = test system: Mus musculus; assay: Selectivity index, ratio of LD50 for albino Mus musculus (mouse) to ED50 for albino Mus musculus (mouse) by acetic acid-induced writhing test
[4] = test system: Mus musculus; assay: Selectivity index, ratio of LD50 for albino Mus musculus (mouse) to ED50 for albino Mus musculus (mouse) by hot-plate test
[5] = Acute toxicity in albino Mus musculus (mouse) assessed as mortality administered intragastrically by kreber method; format: organism-based; conditions: in vivo, po
[6] = test system: Mus musculus; assay: Analgesic activity in albino Mus musculus (mouse) assessed as proportion of animals without pain behaviour symptoms at 10 mg/kg, po administered 1 hr before acetic acid injection measured for 5 to 8 min; format: functional
[7] = test system: Mus musculus; assay: Analgesic activity in po dosed albino Mus musculus (mouse) assessed as protection against thermal stimulus-induced paw licking and jumping behaviour measured after 1 hr by hot plate assay; format: functional
[8] = test system: Mus musculus; assay: Analgesic activity in po dosed albino Mus musculus (mouse) assessed as inhibition of acetic acid-induced abdominal writhings administered 1 hr before acetic acid injection measured for 5 to 8 min; format: functional; conditions: Abdomen

Compound: COc1ccc([C@H]2O[C@@]3(C)C[C@H](c4ccc(OC)c(OC)c4OC)O[C@H]4C(=O)[C@H](C)[C@H]2C[C@H]43)c(OC)c1OC
- inhibition in vivo at 10 mg/kg [1]: 23%
- Activity [2]: 9%

Compound: CC(=O)Oc1ccccc1C(=O)O [ASPIRIN]
- Ratio LD50/ED50 [3]: 10.3

Compound: COc1cc([C@@H]2C[C@@]3(C)O[C@H]4C(C)=CC[C@@H]3[C@H]4O2)cc(OC)c1OC
- Ratio LD50/ED50 [4]: 60
- LD50 [5]: 500 mg/kg
- inhibition in vivo at 10 mg/kg [1]: 65%
- Activity [6]: 25%
- Activity [2]: 72%
- ED50 [7]: 25 mg/kg
- ED50 [8]: 22 mg/kg
- Ratio LD50/ED50 [3]: 60

Compound: COc1cc([C@H]2O[C@@]3(C)C[C@H](c4cc(OC)c(OC)c(OC)c4)O[C@H]4C(=O)[C@H](C)[C@H]2C[C@H]43)cc(OC)c1OC
- inhibition in vivo at 10 mg/kg [1]: 50%
- Activity [6]: 25%
- Activity [2]: 19%

Compound: O=C([O-])Cc1ccccc1Nc1c(Cl)cccc1Cl.[Na+] [DICLOFENAC SODIUM]
- inhibition in vivo at 10 mg/kg [1]: 90%
- Activity [6]: 87.5%
- Activity [2]: 64%

Compound: COc1cc([C@@H]2CC(C)(C)[C@@H]3CC=C(C)[C@@H](O)[C@@H]3O2)cc(OC)c1OC
- inhibition in vivo at 10 mg/kg [1]: 13%
- Activity [2]: 16%
